Results reported in patent publication US8377473B2, “Slow release magnesium composition and uses thereof” (Magceutics, Inc., priority 2009, dated 2013).

Columns and labels:
[1] = Magnesium content in the cerebrospinal fluid; conditions: 24 days of treatment, approximately 50 mg/kg/day elemental magnesium via drinking water
Text: (§1) Statistical analysis: All data were approximated with a normal distribution. […] One-way analysis of variance was used to analyze the cerebrospinal fluid data. GraphPad prism was used for data analysis (version 5.00, GraphPad software Inc.).

rats [2] = experiment: Margin of safety: incidence of diarrhea with magnesium preparations in drinking water; conditions: elemental magnesium via drinking water for 4 days, non-linear regression
Experimental: Animals: Adult male Sprague-Dawley rats were obtained from Wei Tong Li Hua Beijing, China. Rats were individually-housed with free access to standard food and water under a 12:12 h reversed light-dark cycle, with light onset at 8:00 p.m. […] All experimental procedures were approved by the Tsinghua University Committees on Animal Care.
(Magceutics Inc., USA), Magnesium chloride and glycinate (Modern Eastern Fine Chemical, China), magnesium gluconate and citrate (Sigma-Aldrich, Germany). Lactose was obtained from Biobasic Inc (Beijing, China).
The magnesium dose dissolved in the daily intake volume of water was determined based on intake of ˜30 ml/day/rat. Animals were supplied with the magnesium supplemented drinking water for 4 days, after which time the number of animals that developed diarrhea was monitored and calculated as a percentage of the total number of animals in the respective group.
as §1

rats [3] = conditions: young and aged rats, cited from earlier work
diabetic patients = conditions: nearly 1 g of magnesium daily for 1 month; cited from earlier work
[4] = cited from earlier work

| Compound | magnesium concentration in cerebrospinal fluid ([Mg2+]CSF) [1] | TD50 (toxic dose required to induce diarrhea in 50% of animals) (rats [2]) [mg/kg/day] | cognitive function (rats [3]; food containing 2% magnesium oxide for 8 days) | side-effect (rats [3]; food containing 2% magnesium oxide) | increase of serum magnesium level (diabetic patients) | metabolic control (diabetic patients) | magnesium absorption rate ([4]; Firoz and Graber 2001) | bioavailability ([4]; Ranade and Somberg 2001) [%] |
| --- | --- | --- | --- | --- | --- | --- | --- | --- |
| [Cl-].[Cl-].[Mg+2] [magnesium chloride] | relatively limited effect | 90.0 | – | – | – | – | – | – |
| [O]=[Mg] [magnesium oxide] | – | – | some sign of improvement | diarrhea and weight loss | about 10% | only minor improvement | about 4% | 4 |
| magnesium gluconate | – | 99.7 | – | – | – | – | – | – |
